# Data reported in patent publication US20200231638A1, “STABILIZED ANTI-MICROBIAL PEPTIDES” (priority 2015, published 2020).
# Bridge positions count the residues as written; N and C are the ends. Square brackets hold non-standard residues; d marks the D form. Peptide text beside a SMILES is read from it. S5 = C=CCCC[C@](C)(N)C(=O)O; Nle = CCCC[C@H](N)C(=O)O
# Assays:
# S. aureus = assay type: cell-based, Staphylococcus aureus
# Outline: (§1)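 Microdilution MIC test in polyanion-depleted MHB, with a final inoculum of 5×10^5 CFU/ml and 20-24 h incubation at 37° C.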
# P. aeruginosa = assay type: cell-based, Pseudomonas aeruginosa
# Outline: as §1
# B. cereus = assay type: cell-based, Bacillus cereus
# Outline: as §1
# human red blood cells = assay type: cell-based; conditions: red cells of human, 1 h, 25
# Outline: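 Hemolysis expressed as absorbance of released hemoglobin (570 nm) normalized between untreated and 1% Triton-X100 controls, with MHC taken as peptide concentration giving under 1% release. Peptide dilutions were exposed for 1 h at 37° C to a 1% (v/v) suspension of washed human red cells in PBS.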
# E. coli = assay type: cell-based, Escherichia coli
# Outline: as §1
Structure (SMILES),MIC S. aureus (S. aureus) [µg/mL],MIC P. aeruginosa (P. aeruginosa) [µg/mL],MIC B. cereus (B. cereus) [µg/mL],MIC E. coli (E. coli) [µg/mL],% Hemolysis at 25 μg/ml (human red blood cells) [%]
"CCCC[C@H](NC(=O)[C@]1(C)CCCC=CCCC[C@](C)(NC(=O)[C@H](C)NC(=O)[C@H](CCCCN)NC(=O)CNC(=O)[C@H](Cc2ccccc2)NC(=O)[C@H](CCCCN)NC(=O)[C@H](CCCCN)NC(=O)[C@H](C)NC(=O)[C@H](CO)NC(=O)[C@H](Cc2c[nH]cn2)NC(=O)[C@H](CC(C)C)NC(=O)[C@H](Cc2ccccc2)NC(=O)[C@H](CCCCN)NC(=O)CNC(=O)[C@@H](NC(=O)CN)[C@@H](C)CC)C(=O)N[C@@H](C(C)C)C(=O)NCC(=O)N[C@@H](CCC(=O)O)C(=O)N1)C(=O)N[C@@H](CCCCN)C(=O)N[C@@H](CO)C(N)=O [Mag(i + 4)15(N22K), GIGKFLHSAKKFGKAXVGEXBKS] (H-GIGKFLHSAKKFGKA[S5]VGE[S5][Nle]KS-NH2; staple 16-20)",12.5,3.1,3.1,1.6,12.0
"CCCC[C@H](NC(=O)[C@]1(C)CCCC=CCCC[C@](C)(NC(=O)[C@H](C)NC(=O)[C@H](CCCCN)NC(=O)CNC(=O)[C@H](Cc2ccccc2)NC(=O)[C@H](CCCCN)NC(=O)[C@H](CCCCN)NC(=O)[C@H](C)NC(=O)[C@H](CCCCN)NC(=O)[C@H](Cc2c[nH]cn2)NC(=O)[C@H](CC(C)C)NC(=O)[C@H](Cc2ccccc2)NC(=O)[C@H](CCCCN)NC(=O)CNC(=O)[C@@H](NC(=O)CN)[C@@H](C)CC)C(=O)N[C@@H](C(C)C)C(=O)NCC(=O)N[C@@H](CCC(=O)O)C(=O)N1)C(=O)N[C@@H](CC(N)=O)C(=O)N[C@@H](CO)C(N)=O [Mag(i + 4)15(S8K), GIGKFLHKAKKFGKAXVGEXBNS] (H-GIGKFLHKAKKFGKA[S5]VGE[S5][Nle]NS-NH2; staple 16-20)",6.2,6.2,3.1,1.6,3.4
"CCCC[C@H](NC(=O)[C@]1(C)CCCC=CCCC[C@](C)(NC(=O)[C@H](C)NC(=O)[C@H](CCCCN)NC(=O)CNC(=O)[C@H](Cc2ccccc2)NC(=O)[C@H](CCCCN)NC(=O)[C@H](CCCCN)NC(=O)[C@H](C)NC(=O)[C@H](CO)NC(=O)[C@H](Cc2c[nH]cn2)NC(=O)[C@H](CC(C)C)NC(=O)[C@H](Cc2ccccc2)NC(=O)[C@H](CCCCN)NC(=O)CNC(=O)[C@@H](NC(=O)CN)[C@@H](C)CC)C(=O)N[C@@H](C(C)C)C(=O)NCC(=O)N[C@@H](CCC(=O)O)C(=O)N1)C(=O)N[C@@H](CC(N)=O)C(=O)N[C@@H](CCC(=O)O)C(N)=O [Mag(i + 4)15(S23E), GIGKFLHSAKKFGKAXVGEXBNE] (H-GIGKFLHSAKKFGKA[S5]VGE[S5][Nle]NE-NH2; staple 16-20)",25,12.5,12.5,3.1,4.9
"CCCC[C@H](NC(=O)[C@]1(C)CCCC=CCCC[C@](C)(NC(=O)[C@H](C)NC(=O)[C@H](CCCCN)NC(=O)CNC(=O)[C@H](Cc2ccccc2)NC(=O)[C@H](CCCCN)NC(=O)[C@H](CCCCN)NC(=O)[C@H](C)NC(=O)[C@H](CO)NC(=O)[C@H](Cc2c[nH]cn2)NC(=O)[C@H](CC(C)C)NC(=O)[C@H](Cc2ccccc2)NC(=O)[C@H](CCCCN)NC(=O)CNC(=O)[C@@H](NC(=O)CN)[C@@H](C)CC)C(=O)N[C@@H](C(C)C)C(=O)NCC(=O)N[C@@H](CCC(=O)O)C(=O)N1)C(=O)N[C@@H](CC(N)=O)C(=O)N[C@@H](CCCCN)C(N)=O [Mag(i + 4)15(S23K), GIGKFLHSAKKFGKAXVGEXBNK] (H-GIGKFLHSAKKFGKA[S5]VGE[S5][Nle]NK-NH2; staple 16-20)",50,3.1,6.2,1.6,5.0
"CCCC[C@H](NC(=O)[C@]1(C)CCCC=CCCC[C@](C)(NC(=O)[C@H](C)NC(=O)[C@H](CCCCN)NC(=O)CNC(=O)[C@H](Cc2ccccc2)NC(=O)[C@H](CCCCN)NC(=O)[C@H](CCCCN)NC(=O)[C@H](C)NC(=O)[C@H](CO)NC(=O)[C@H](Cc2c[nH]cn2)NC(=O)[C@H](CC(C)C)NC(=O)[C@H](Cc2ccccc2)NC(=O)[C@H](CCCCN)NC(=O)CNC(=O)[C@@H](NC(=O)CN)[C@@H](C)CC)C(=O)N[C@@H](CCCCN)C(=O)NCC(=O)N[C@@H](CCC(=O)O)C(=O)N1)C(=O)N[C@@H](CC(N)=O)C(=O)N[C@@H](CO)C(N)=O [Mag(i + 4)15(V17K), GIGKFLHSAKKFGKAXKGEXBNS] (H-GIGKFLHSAKKFGKA[S5]KGE[S5][Nle]NS-NH2; staple 16-20)",>50,12.5,50,3.1,2.2
CCCC[C@@H]1NC(=O)[C@H]([C@@H](C)CC)NC(=O)[C@H](CCC(=O)O)NC(=O)[C@@](C)(NC(=O)[C@@H](NC(=O)[C@H](Cc2ccccc2)NC(=O)[C@H](C)NC(=O)[C@H](CCCCN)NC(=O)CNC(=O)[C@H](Cc2ccccc2)NC(=O)[C@H](CCCCN)NC(=O)[C@H](CCCCN)NC(=O)[C@H](C)NC(=O)[C@H](CO)NC(=O)[C@H](Cc2c[nH]cn2)NC(=O)[C@H](CC(C)C)NC(=O)[C@H](Cc2ccccc2)NC(=O)[C@H](CCCCN)NC(=O)CNC(=O)[C@@H](NC(=O)CN)[C@@H](C)CC)C(C)C)CCCC=CCCC[C@@](C)(C(=O)N[C@@H](CO)C(N)=O)NC1=O [Mag(i + 4)17] (H-GIGKFLHSAKKFGKAFV[S5]EI[Nle][S5]S-NH2; staple 18-22),3.1,6.2,1.6,1.6,56.0

# More lines, main results first:
MIC S. aureus (S. aureus) [µg/mL],MIC P. aeruginosa (P. aeruginosa) [µg/mL],MIC B. cereus (B. cereus) [µg/mL],MIC E. coli (E. coli) [µg/mL],Structure (SMILES),% Hemolysis at 25 μg/ml (human red blood cells) [%]
3.1,3.1,3.1,1.6,"CCCC[C@H](NC(=O)[C@]1(C)CCCC=CCCC[C@](C)(NC(=O)[C@H](C)NC(=O)[C@H](CCCCN)NC(=O)CNC(=O)[C@H](Cc2ccccc2)NC(=O)[C@H](CCCCN)NC(=O)[C@H](CCCCN)NC(=O)[C@H](C)NC(=O)[C@H](Cc2c[nH]cn2)NC(=O)[C@H](Cc2c[nH]cn2)NC(=O)[C@H](CC(C)C)NC(=O)[C@H](Cc2ccccc2)NC(=O)[C@H](CCCCN)NC(=O)CNC(=O)[C@@H](NC(=O)CN)[C@@H](C)CC)C(=O)N[C@@H](C(C)C)C(=O)NCC(=O)N[C@@H](CCC(=O)O)C(=O)N1)C(=O)N[C@@H](CC(N)=O)C(=O)N[C@@H](CO)C(N)=O [Mag(i + 4)15(S8H), GIGKFLHHAKKFGKAXVGEXBNS] (H-GIGKFLHHAKKFGKA[S5]VGE[S5][Nle]NS-NH2; staple 16-20)",8.7
>50,>50,>50,50,"CCCC[C@H](NC(=O)[C@]1(C)CCCC=CCCC[C@](C)(NC(=O)[C@H](C)NC(=O)[C@H](CCCCN)NC(=O)CNC(=O)[C@H](Cc2ccccc2)NC(=O)[C@H](CCCCN)NC(=O)[C@H](CCCCN)NC(=O)[C@H](C)NC(=O)[C@H](CO)NC(=O)[C@H](Cc2c[nH]cn2)NC(=O)[C@H](CC(C)C)NC(=O)[C@H](Cc2ccccc2)NC(=O)[C@H](CCCCN)NC(=O)CNC(=O)[C@@H](NC(=O)CN)[C@@H](C)CC)C(=O)N[C@@H](CCC(=O)O)C(=O)NCC(=O)N[C@@H](CCC(=O)O)C(=O)N1)C(=O)N[C@@H](CC(N)=O)C(=O)N[C@@H](CO)C(N)=O [Mag(i + 4)15(V17E), GIGKFLHSAKKFGKAXEGEXBNS] (H-GIGKFLHSAKKFGKA[S5]EGE[S5][Nle]NS-NH2; staple 16-20)",0.5
12.5,6.2,6.2,1.6,CCCC[C@H](NC(=O)[C@]1(C)CCCC=CCCC[C@](C)(NC(=O)[C@H](C)NC(=O)[C@H](CCCCN)NC(=O)CNC(=O)[C@H](Cc2ccccc2)NC(=O)[C@H](CCCCN)NC(=O)[C@H](CCCCN)NC(=O)[C@H](C)NC(=O)[C@H](CO)NC(=O)[C@H](Cc2c[nH]cn2)NC(=O)[C@H](CC(C)C)NC(=O)[C@H](Cc2ccccc2)NC(=O)[C@H](CCCCN)NC(=O)CNC(=O)[C@@H](NC(=O)CN)[C@@H](C)CC)C(=O)N[C@@H](C(C)C)C(=O)NCC(=O)N[C@@H](CCC(=O)O)C(=O)N1)C(=O)N[C@@H](CC(N)=O)C(=O)N[C@@H](CO)C(N)=O [Mag(i + 4)15] (H-GIGKFLHSAKKFGKA[S5]VGE[S5][Nle]NS-NH2; staple 16-20),11.9
50,6.2,12.5,3.1,"CC[C@H](C)[C@H](NC(=O)CN)C(=O)NCC(=O)N[C@@H](CCCCN)C(=O)N[C@@H](Cc1ccccc1)C(=O)N[C@@H](CC(C)C)C(=O)N[C@@H](Cc1c[nH]cn1)C(=O)N[C@@H](CO)C(=O)N[C@@H](C)C(=O)N[C@@H](CCCCN)C(=O)N[C@@H](CCCCN)C(=O)N[C@@H](Cc1ccccc1)C(=O)NCC(=O)N[C@@H](CCCCN)C(=O)N[C@@H](C)C(=O)N[C@@H](Cc1ccccc1)C(=O)N[C@@]1(C)CCCC=CCCC[C@@](C)(C(=O)N[C@@H](CC(N)=O)C(=O)N[C@@H](CO)C(N)=O)NC(=O)[C@H]([C@@H](C)CC)NC(=O)[C@H](CCC(=O)O)NC(=O)CNC1=O [Mag(i + 4)16, GIGKFLHSAKKFGKAFXGEIXNS] (H-GIGKFLHSAKKFGKAF[S5]GEI[S5]NS-NH2; staple 17-21)",7.8
